In patent publication US10119168B2, “Methods for the treatment of kidney fibrosis” (priority 2014, dated 2018):

Tested on: mouse kidney
Experiment: RNA-seq of kidney gene expression over time in FA nephropathy progression (Table 1)
Assay type: in vivo
Text: Identification of Candidate Genes for Biomarkers of Kidney Fibrosis Through RNA-Seq. […] To select genes that are indicative of fibrosis candidates were considered from this later group that had robust upregulation (>5-fold with >100 read counts at peak) over time as fibrosis progresses. Another important criteria was the location of the protein product of the gene, either in extracellular matrix or transmembrane, to increase the chance of detecting it in the urine and use it as a biomarker(11).
(§1) RNA samples (n=3 mice/time point) were sequenced at the Bioplymers Facility at the Harvard Medical School. Libraries were prepared from 10 ng total RNA per sample using the IntegenX Apollo 324 system and NuGEN SPIA reagents. Libraries were multiplexed in groups of three per lane of a flowcell and 50 cycle, paired-end sequencing was performed on an Illumina HiSeq2000 instrument. Illumina sequence quality was surveyed with FastQC (available on the world wide web at bioinformatics.babraham.ac.uk/projects/fastqc/) to ensure suitability of library generation and sequencing for further analysis. Adapters and lower quality bases were trimmed with Cutadapt (available on the world wide web at code.google.com/p/cutadapt/), using a Phred quality cutoff of 20, and reassessed with FastQC. Trimmed reads were aligned to the Ensembl NCBIM37 Mus musculus genome build with TopHat2. Aligned reads were summarized at the gene level against the Illumina iGenomes (available on the world wide web at tophat.cbcb.umd.edu/igenomes.html) NCBIM37 Mus musculus gene annotations using HTSeq (available on the world wide web at huber.embl.de/users/anders/HTSeq/doc/overview.html). […] The full dataset is available in the NCBI GEO database with the accession number GSE65267. Raw data is accessible on the world wide web at ncbi.nlm.nih.gov/geo/query/acc.cgi?acc=GSE65267.
Mice were sacrificed at 1, 2, 3, 7 and 14 days following administration. […] All mice were sacrificed at 14 days.
as §1, with “The quantity and quality of mRNA” for “RNA samples (n=3 mice/time point)”, “assayed on an Agilent 2200 TapeStation instrument and by SYBR qPCR assay.” for “sequenced at the Bioplymers Facility at the Harvard Medical School.”, “(https://code.google.com/p/cutadapt/),” for “(available on the world wide web at code.google.com/p/cutadapt/),”

SMILES: Nc1nc2ncc(CNc3ccc(C(=O)N[C@@H](CCC(=O)O)C(=O)O)cc3)nc2c(=O)[nH]1 [FA, folic acid]
- Sycn mean fold change from normal (Day 3): 0.07 fold
- Synpr mean fold change from normal (Day 3): 0.01 fold
- Sytl2 mean fold change from normal (Day 3): 8.20 fold
- Tagln2 mean fold change from normal (Day 3): 4.86 fold
- Tbx10 mean fold change from normal (Day 3): 0.08 fold
- Timd2 mean fold change from normal (Day 3): 1.47 fold
- Timp1 mean fold change from normal (Day 3): 60.56 fold
- Tlr2 mean fold change from normal (Day 3): 34.62 fold
- Tmem25 mean fold change from normal (Day 3): 0.39 fold
- Tmem26 mean fold change from normal (Day 3): 0.16 fold
- Tmem207 mean fold change from normal (Day 3): 0.14 fold
- Tmsb10 mean fold change from normal (Day 3): 9.84 fold
- Tnc mean fold change from normal (Day 3): 9.00 fold
- Tnfaip3 mean fold change from normal (Day 3): 6.38 fold
- Tnfrsf23 mean fold change from normal (Day 3): 5.65 fold
- Top2a mean fold change from normal (Day 3): 10.49 fold
- Tpx2 mean fold change from normal (Day 3): 7.65 fold
- Tril mean fold change from normal (Day 3): 0.69 fold
- Tsc22d1 mean fold change from normal (Day 3): 4.34 fold
- Ttc36 mean fold change from normal (Day 3): 0.34 fold
- Ttr mean fold change from normal (Day 3): 0.15 fold
- Tyrobp mean fold change from normal (Day 3): 4.90 fold
- Ugt3a1 mean fold change from normal (Day 3): 0.17 fold
- Uhrf1 mean fold change from normal (Day 3): 12.11 fold
- Upp2 mean fold change from normal (Day 3): 0.21 fold
- Vcam1 mean fold change from normal (Day 3): 121.91 fold
- Vill mean fold change from normal (Day 3): 0.18 fold
- Vmn1r18 mean fold change from normal (Day 3): 0.14 fold
- Vmn1r19 mean fold change from normal (Day 3): 0.52 fold
- Vmn1r20 mean fold change from normal (Day 3): 0.31 fold
- Vmn1r-ps11 mean fold change from normal (Day 3): 0.73 fold
- Vstm2a mean fold change from normal (Day 3): 0.04 fold
- Vtcn1 mean fold change from normal (Day 3): 28.37 fold
- Vwce mean fold change from normal (Day 3): 0.42 fold
- Wfdc15b mean fold change from normal (Day 3): 0.06 fold
- Ybx2 mean fold change from normal (Day 3): 0.18 fold
- 7SK RNA mean fold change from normal (Day 7): 0.08 fold
- 2310042D19Rik mean fold change from normal (Day 7): 0.46 fold
- 4930533I22Rik mean fold change from normal (Day 7): 0.25 fold
- 4933417A18Rik mean fold change from normal (Day 7): 0.41 fold
- 8430408G22Rik mean fold change from normal (Day 7): 1.23 fold
- 9030619P08Rik mean fold change from normal (Day 7): 0.03 fold
- Slc2a5 mean fold change from normal (Day 7): 0.25 fold
- Slc4a1 mean fold change from normal (Day 7): 0.35 fold
- Slc5a4a mean fold change from normal (Day 7): 0.17 fold
- Slc5a12 mean fold change from normal (Day 7): 0.35 fold
- Slc6a12 mean fold change from normal (Day 7): 0.12 fold
- Slc7a13 mean fold change from normal (Day 7): 0.10 fold
- Slc28a1 mean fold change from normal (Day 7): 0.44 fold
- Slc34a1 mean fold change from normal (Day 7): 0.30 fold
- Slc34a2 mean fold change from normal (Day 7): 7.02 fold
- Slc34a3 mean fold change from normal (Day 7): 0.20 fold
- Slc46a3 mean fold change from normal (Day 7): 0.31 fold
- Slco1a1 mean fold change from normal (Day 7): 0.12 fold
- Smoc2 mean fold change from normal (Day 7): 4.22 fold
- Smpdl3b mean fold change from normal (Day 7): 38.83 fold
- Snx31 mean fold change from normal (Day 7): 0.07 fold
- Socs1 mean fold change from normal (Day 7): 34.95 fold
- Sox4 mean fold change from normal (Day 7): 11.09 fold
- Sox9 mean fold change from normal (Day 7): 30.72 fold
- Spaca7 mean fold change from normal (Day 7): 30.89 fold
- Spink6 mean fold change from normal (Day 7): 5.47 fold
- Spp1 mean fold change from normal (Day 7): 37.70 fold
- Spred3 mean fold change from normal (Day 7): 3.82 fold
- Spsb1 mean fold change from normal (Day 7): 8.93 fold
- Spt1c3 mean fold change from normal (Day 7): 1.25 fold
- St8sia2 mean fold change from normal (Day 7): 26.47 fold
- Stil mean fold change from normal (Day 7): 3.57 fold
- Stk32a mean fold change from normal (Day 7): 2.72 fold
- Stra6 mean fold change from normal (Day 7): 22.31 fold
- Susd2 mean fold change from normal (Day 7): 0.28 fold
- Sycn mean fold change from normal (Day 7): 0.07 fold
- Synpr mean fold change from normal (Day 7): 0.01 fold
- Sytl2 mean fold change from normal (Day 7): 11.81 fold
- Tagln2 mean fold change from normal (Day 7): 4.01 fold
- Tbx10 mean fold change from normal (Day 7): 0.03 fold
- Timd2 mean fold change from normal (Day 7): 0.68 fold
- Timp1 mean fold change from normal (Day 7): 67.32 fold
- Tlr2 mean fold change from normal (Day 7): 15.78 fold
- Tmem25 mean fold change from normal (Day 7): 0.53 fold
- Tmem26 mean fold change from normal (Day 7): 0.16 fold
- Tmem207 mean fold change from normal (Day 7): 0.35 fold
- Tmsb10 mean fold change from normal (Day 7): 9.28 fold
- Tnc mean fold change from normal (Day 7): 16.74 fold
- Tnfaip3 mean fold change from normal (Day 7): 8.79 fold
- Tnfrsf23 mean fold change from normal (Day 7): 2.21 fold
- Top2a mean fold change from normal (Day 7): 5.58 fold
- Tpx2 mean fold change from normal (Day 7): 2.93 fold
- Tril mean fold change from normal (Day 7): 2.07 fold
- Tsc22d1 mean fold change from normal (Day 7): 2.18 fold
- Ttc36 mean fold change from normal (Day 7): 0.34 fold
- Ttr mean fold change from normal (Day 7): 0.56 fold
- Tyrobp mean fold change from normal (Day 7): 16.29 fold
- Ugt3a1 mean fold change from normal (Day 7): 0.22 fold
- Uhrf1 mean fold change from normal (Day 7): 3.81 fold
- Upp2 mean fold change from normal (Day 7): 0.69 fold
- Vcam1 mean fold change from normal (Day 7): 63.51 fold
- Vill mean fold change from normal (Day 7): 0.20 fold
- Vmn1r18 mean fold change from normal (Day 7): 0.27 fold
- Vmn1r19 mean fold change from normal (Day 7): 0.73 fold
- Vmn1r20 mean fold change from normal (Day 7): 0.27 fold
- Vmn1r-ps11 mean fold change from normal (Day 7): 0.11 fold
- Vstm2a mean fold change from normal (Day 7): 0.20 fold
- Vtcn1 mean fold change from normal (Day 7): 15.70 fold
- Vwce mean fold change from normal (Day 7): 1.03 fold
- Wfdc15b mean fold change from normal (Day 7): 0.27 fold
- Ybx2 mean fold change from normal (Day 7): 0.72 fold
- 7SK RNA mean fold change from normal (Day 14): 1.35 fold
- 2310042D19Rik mean fold change from normal (Day 14): 0.95 fold
- 4930533I22Rik mean fold change from normal (Day 14): 0.74 fold
- 4933417A18Rik mean fold change from normal (Day 14): 0.67 fold
- 8430408G22Rik mean fold change from normal (Day 14): 0.79 fold
- 9030619P08Rik mean fold change from normal (Day 14): 0.25 fold
- Slc2a5 mean fold change from normal (Day 14): 0.99 fold
- Slc4a1 mean fold change from normal (Day 14): 0.92 fold
- Slc5a4a mean fold change from normal (Day 14): 1.06 fold
- Slc5a12 mean fold change from normal (Day 14): 0.58 fold
- Slc6a12 mean fold change from normal (Day 14): 0.77 fold
- Slc7a13 mean fold change from normal (Day 14): 0.48 fold
- Slc28a1 mean fold change from normal (Day 14): 0.55 fold
- Slc34a1 mean fold change from normal (Day 14): 0.58 fold
- Slc34a2 mean fold change from normal (Day 14): 4.10 fold
- Slc34a3 mean fold change from normal (Day 14): 0.33 fold
- Slc46a3 mean fold change from normal (Day 14): 0.53 fold
- Slco1a1 mean fold change from normal (Day 14): 0.36 fold
- Smoc2 mean fold change from normal (Day 14): 6.08 fold
- Smpdl3b mean fold change from normal (Day 14): 19.27 fold
- Snx31 mean fold change from normal (Day 14): 0.27 fold
- Socs1 mean fold change from normal (Day 14): 36.18 fold
- Sox4 mean fold change from normal (Day 14): 7.60 fold
- Sox9 mean fold change from normal (Day 14): 8.17 fold
- Spaca7 mean fold change from normal (Day 14): 11.81 fold
- Spink6 mean fold change from normal (Day 14): 1.77 fold
- Spp1 mean fold change from normal (Day 14): 10.75 fold
- Spred3 mean fold change from normal (Day 14): 5.60 fold
- Spsb1 mean fold change from normal (Day 14): 4.14 fold
- Spt1c3 mean fold change from normal (Day 14): 0.68 fold
- St8sia2 mean fold change from normal (Day 14): 2.02 fold
- Stil mean fold change from normal (Day 14): 0.95 fold
- Stk32a mean fold change from normal (Day 14): 1.64 fold
- Stra6 mean fold change from normal (Day 14): 14.59 fold
- Susd2 mean fold change from normal (Day 14): 0.51 fold
- Sycn mean fold change from normal (Day 14): 0.22 fold
- Synpr mean fold change from normal (Day 14): 0.18 fold
- Sytl2 mean fold change from normal (Day 14): 6.72 fold
- Tagln2 mean fold change from normal (Day 14): 2.37 fold
- Tbx10 mean fold change from normal (Day 14): 0.44 fold
- Timd2 mean fold change from normal (Day 14): 0.67 fold
- Timp1 mean fold change from normal (Day 14): 61.27 fold
- Tlr2 mean fold change from normal (Day 14): 7.34 fold
- Tmem25 mean fold change from normal (Day 14): 0.53 fold
- Tmem26 mean fold change from normal (Day 14): 0.49 fold
- Tmem207 mean fold change from normal (Day 14): 1.20 fold
- Tmsb10 mean fold change from normal (Day 14): 5.31 fold
- Tnc mean fold change from normal (Day 14): 18.78 fold
- Tnfaip3 mean fold change from normal (Day 14): 3.95 fold
- Tnfrsf23 mean fold change from normal (Day 14): 1.75 fold
- Top2a mean fold change from normal (Day 14): 3.30 fold
- Tpx2 mean fold change from normal (Day 14): 2.69 fold
- Tril mean fold change from normal (Day 14): 0.97 fold
- Tsc22d1 mean fold change from normal (Day 14): 2.00 fold
- Ttc36 mean fold change from normal (Day 14): 0.67 fold
- Ttr mean fold change from normal (Day 14): 0.78 fold
- Tyrobp mean fold change from normal (Day 14): 10.29 fold
- Ugt3a1 mean fold change from normal (Day 14): 0.46 fold
- Uhrf1 mean fold change from normal (Day 14): 3.48 fold
- Upp2 mean fold change from normal (Day 14): 1.34 fold
- Vcam1 mean fold change from normal (Day 14): 36.46 fold
- Vill mean fold change from normal (Day 14): 0.36 fold
- Vmn1r18 mean fold change from normal (Day 14): 0.87 fold
- Vmn1r19 mean fold change from normal (Day 14): 1.04 fold
- Vmn1r20 mean fold change from normal (Day 14): 0.79 fold
- Vmn1r-ps11 mean fold change from normal (Day 14): 0.51 fold
- Vstm2a mean fold change from normal (Day 14): 0.60 fold
- Vtcn1 mean fold change from normal (Day 14): 7.44 fold
- Vwce mean fold change from normal (Day 14): 0.85 fold
- Wfdc15b mean fold change from normal (Day 14): 0.90 fold
- Ybx2 mean fold change from normal (Day 14): 0.44 fold
